Measured values from the NIST ThermoML archive (doi:10.1021/je060210c).
± gives the expanded uncertainty stated by the source.

Details: 101.33 kPa, Liquid; for speed of sound: Sing-around technique in a fixed-path interferometer

mass density (283.15 K) [kg/m3]	speed of sound (283.15 K) [m/s]	mass density (298.15 K) [kg/m3]	speed of sound (298.15 K) [m/s]	mass density (313.15 K) [kg/m3]	speed of sound (313.15 K) [m/s]	Structure (SMILES)
821.79 ± 0.92	1325.9 ± 1.3	810.83 ± 0.95	1274.1 ± 1.2	799.8 ± 0.98	1225.5 ± 1.2	CCCCCO [pentan-1-ol]
816.77 ± 1.9	1286.7 ± 2.1	804.97 ± 1.9	1232.6 ± 2.1	792.42 ± 2	1168.1 ± 2.1	CCCC(C)O (stereo not drawn) [pentan-2-ol]
879.07 ± 0.77	1354.3 ± 1.3	867.11 ± 0.8	1295.6 ± 1.3	854.87 ± 0.83	1236.3 ± 1.2	C=C1CCC2CC1C2(C)C (stereo not drawn) [β-pinene]
